From patent US10934303B2, “Aryl ethene derivative and pharmaceutical composition containing same as active ingredient” (priority 2016, dated 2021)

Tests used:
ERRγ = assay type: cell-based; details: for Functional Assay at 10 μM (% of control), Cpds: 24 hours, AD293; for Functional Assay, Cpds/Ref 5182: activity relative to reference compound GSK5182, 10 μM
CYP1A2 = CYP1A2 (Homo sapiens (Human), UniProt P05177); test: Cytochrome P450 activity inhibition, CYP1A2; assay type: in vitro ADME; details: 10 μM, human liver microsomes, Phenacetin substrate
Chain of CYP1A2 (P05177 whole entry): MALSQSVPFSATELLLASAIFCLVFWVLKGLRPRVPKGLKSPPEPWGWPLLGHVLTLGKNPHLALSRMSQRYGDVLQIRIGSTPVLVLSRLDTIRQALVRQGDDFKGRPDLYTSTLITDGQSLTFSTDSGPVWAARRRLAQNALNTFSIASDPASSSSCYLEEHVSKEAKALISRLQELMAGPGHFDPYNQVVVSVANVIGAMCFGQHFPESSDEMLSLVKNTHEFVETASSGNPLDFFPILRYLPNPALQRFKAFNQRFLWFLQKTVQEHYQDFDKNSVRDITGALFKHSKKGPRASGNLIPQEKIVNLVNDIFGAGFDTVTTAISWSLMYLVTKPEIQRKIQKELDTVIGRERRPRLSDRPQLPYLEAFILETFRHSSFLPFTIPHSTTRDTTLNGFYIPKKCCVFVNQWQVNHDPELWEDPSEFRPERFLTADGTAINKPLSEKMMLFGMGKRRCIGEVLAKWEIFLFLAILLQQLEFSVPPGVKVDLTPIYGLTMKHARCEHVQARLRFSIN
Text: (§1) 1) Cytochrome P450 (CYP450) Activity Inhibition Evaluation

CYP2C9 = CYP2C9 (Homo sapiens (Human), UniProt P11712); test: Cytochrome P450 activity inhibition, CYP2C9; assay type: in vitro ADME; details: 10 μM, human liver microsomes, Diclofenac substrate
Chain of CYP2C9 (P11712 whole entry): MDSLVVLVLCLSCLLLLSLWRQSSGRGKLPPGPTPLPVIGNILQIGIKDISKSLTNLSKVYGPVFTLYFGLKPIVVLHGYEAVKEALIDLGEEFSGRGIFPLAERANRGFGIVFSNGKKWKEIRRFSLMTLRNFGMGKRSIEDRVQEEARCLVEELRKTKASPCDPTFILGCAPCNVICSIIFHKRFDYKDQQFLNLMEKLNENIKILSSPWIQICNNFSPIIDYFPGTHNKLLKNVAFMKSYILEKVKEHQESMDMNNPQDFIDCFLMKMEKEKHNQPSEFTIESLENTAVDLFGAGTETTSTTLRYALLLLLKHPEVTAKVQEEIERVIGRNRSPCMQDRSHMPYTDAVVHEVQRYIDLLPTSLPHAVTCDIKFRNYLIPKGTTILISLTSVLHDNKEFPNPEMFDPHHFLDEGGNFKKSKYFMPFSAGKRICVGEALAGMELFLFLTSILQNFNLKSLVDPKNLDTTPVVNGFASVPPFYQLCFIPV
Text: as §1

CYP2C19 = CYP2C19 (Homo sapiens (Human), UniProt P33261); test: Cytochrome P450 activity inhibition, CYP2C19; assay type: in vitro ADME; details: 10 μM, human liver microsomes, S-mephenytoin substrate
Chain of CYP2C19 (P33261 whole entry): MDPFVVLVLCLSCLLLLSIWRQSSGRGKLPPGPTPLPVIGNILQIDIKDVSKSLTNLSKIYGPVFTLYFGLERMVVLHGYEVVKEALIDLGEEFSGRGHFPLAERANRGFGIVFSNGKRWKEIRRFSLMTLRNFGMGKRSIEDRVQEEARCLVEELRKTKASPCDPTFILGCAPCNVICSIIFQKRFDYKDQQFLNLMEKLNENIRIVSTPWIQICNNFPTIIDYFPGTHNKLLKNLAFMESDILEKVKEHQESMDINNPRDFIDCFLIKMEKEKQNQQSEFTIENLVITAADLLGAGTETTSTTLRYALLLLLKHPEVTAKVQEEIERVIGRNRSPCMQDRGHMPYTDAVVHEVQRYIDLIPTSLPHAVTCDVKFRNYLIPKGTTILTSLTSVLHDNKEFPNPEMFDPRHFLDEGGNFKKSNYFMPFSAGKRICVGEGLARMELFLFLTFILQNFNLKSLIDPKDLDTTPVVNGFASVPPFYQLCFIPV
Text: as §1

CYP2D6 = CYP2D6 (Homo sapiens (Human), UniProt P10635); test: Cytochrome P450 activity inhibition, CYP2D6; assay type: in vitro ADME; details: 10 μM, human liver microsomes, Dextromethorphan substrate
Chain of CYP2D6 (P10635 whole entry): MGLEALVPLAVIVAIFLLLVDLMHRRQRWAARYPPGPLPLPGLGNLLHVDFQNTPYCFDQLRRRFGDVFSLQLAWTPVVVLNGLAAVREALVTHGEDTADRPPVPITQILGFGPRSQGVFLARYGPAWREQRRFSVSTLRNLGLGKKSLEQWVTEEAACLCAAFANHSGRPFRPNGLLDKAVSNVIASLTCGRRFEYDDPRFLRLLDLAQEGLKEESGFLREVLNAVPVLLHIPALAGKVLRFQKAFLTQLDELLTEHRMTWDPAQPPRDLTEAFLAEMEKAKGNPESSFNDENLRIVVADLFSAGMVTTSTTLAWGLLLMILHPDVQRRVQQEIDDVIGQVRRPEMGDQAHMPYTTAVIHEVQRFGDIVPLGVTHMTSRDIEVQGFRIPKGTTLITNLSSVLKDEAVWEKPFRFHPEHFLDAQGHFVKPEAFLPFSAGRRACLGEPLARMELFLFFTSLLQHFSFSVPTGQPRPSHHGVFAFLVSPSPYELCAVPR
Text: as §1

[1] = 1 μM, 30 minutes, 37° C., NADPH
[2] = 1 μM, 30 minutes, 37° C., NADPH; remark: listed apart in the source
Method: 2) Microsomal Stability Evaluation
Four liver microsomes (Human, Dog, Rat, Mouse 0.5 mg/ml) with a 0.1 M phosphate buffer solution (pH 7.4), and the arylethene derivative of the present invention were added to a concentration of 1 μM, culturing was performed at 37° C. for 5 minutes in advance, a NADPH regeneration system solution was added thereto, and culturing was performed at 37° C. for 30 minutes. Thereafter, in order to complete the reaction, an acetonitrile solution containing an internal standard material (chlorpropamide) was added thereto, centrifugation (14,000 rpm, 4° C.) was performed for 5 minutes, and a supernatant was injected into a LC-MS/MS system to analyze the substrate drug, thereby evaluating metabolism stability to the arylethene derivative of the present invention.

in vitro = in vitro ADME; parameters: Papp at 5 h: dose or concentration left out as unconfirmed; details: PBS pH 7.4, 25° C.; for Papp at 5 h: PAMPA, read-out: Permeability Pampa
Method: 3) Parallel Artificial Membrane Permeability Assay (PAMPA) Evaluation
PAMPA is a method which has been developed for testing cell membrane permeability of a material in a test tube, and has been performed using a lipid tri-layer PVDF membrane available from Corning Gentest (NY, US), the used reagents were all purchased from Sigma (MO, US). First, a test material is diluted in PBS (pH 7.4) to a final concentration of 10 mM, 300 mL of the solution is added to the bottom well of a 96-transwell equipped with a PVDF membrane, and 200 mL of PBS is added to the upper well. Then, a plate is reacted at 25° C. for 5 hours, 20 mL of the solution in each well is transferred to a new container, and 80 mL of acetonitrile containing an internal standard material (4 mM chloropropamide) is added thereto. A concentration of the material in the solution is analyzed using LC-MS/MS (ThermoFisher Scientific, MO, US), and the transmittance of the material is calculated according to the equation reported in the reference document.

in vivo = assay type: in vivo; details: rat, IV, 1 mg/kg

C[Si](C)(CC1CCNCC1)c1ccc(/C(=C(/CCCO)c2ccccc2)c2ccc(O)cc2)cc1 [Compound 42d]
Functional Assay at 10 μM (% of control), Cpds (ERRγ): 11.7 % of control | Functional Assay, Cpds/Ref 5182 (ERRγ): 3.99

C[C@@]12CNC[C@]1(C)CN(CC(=O)Nc1ccc(/C(=C(/CCCO)c3ccccc3)c3ccc(O)cc3)cc1)C2 [Compound 46, 2-((3aR,6aS)-3a,6a-dimethylhexahydropyrrolo[3,4-c]pyrrol-2(1H)-yl)-N-(4-((E)-5-hydroxy-1-(4-hydroxyphenyl)-2-phenylpent-1-en-1-yl)phenyl)acetamide]
Functional Assay at 10 μM (% of control), Cpds (ERRγ): 78.46 % of control | Functional Assay, Cpds/Ref 5182 (ERRγ): 24.91

CC(C)N1CCN(c2ccc(/C(=C(/CCCO)c3ccccc3)c3ccc(OS(=O)(=O)C(F)(F)F)cc3)cc2)CC1 [Compound 28d]
Functional Assay at 10 μM (% of control), Cpds (ERRγ): 1.69 % of control | Functional Assay, Cpds/Ref 5182 (ERRγ): 1.78

CN1CCN(C[Si](C)(C)c2ccc(/C(=C(/CCCO)c3ccccc3)c3ccc(O)cc3)cc2)CC1 [Compound 42a, (Z)-4-(1-(4-(dimethyl((4-methylpiperazin-1-yl)methyl)silyl)phenyl)-5-hydroxy-2-phenylpent-1-en-1-yl)phenol]
Functional Assay at 10 μM (% of control), Cpds (ERRγ): 4.37 % of control | Functional Assay, Cpds/Ref 5182 (ERRγ): 1.49

CC(C)(C)OC(=O)N1CC(c2ccc(/C(=C(/CCCO)c3ccccc3)c3ccc(O)cc3)cc2)C1 [Compound 18t, tert-butyl (E)-3-(4-(5-hydroxy-1-(4-hydroxyphenyl)-2-phenylpent-1-en-1-yl)phenyl)azetidine-1-carboxylate]
Functional Assay at 10 μM (% of control), Cpds (ERRγ): 11.1 % of control | Functional Assay, Cpds/Ref 5182 (ERRγ): 1.11 | CYP inhibition (% of control) 1A2 (CYP1A2): 100 % of control | CYP inhibition (% of control) 2C9 (CYP2C9): 83 % of control | CYP inhibition (% of control) 2C19 (CYP2C19): 93 % of control | CYP inhibition (% of control) 2D6 (CYP2D6): 98 % of control | MS(Microsomal Stability) (%) human [1]: 66.9% | MS(Microsomal Stability) (%) rat [2]: 80.5%

CN1CCN(c2ccc(/C(=C(/CCCOC(=O)C(C)(C)C)c3ccccc3)c3ccc(O)cc3)cc2)CC1 [Compound 28f]
Functional Assay at 10 μM (% of control), Cpds (ERRγ): 4 % of control | Functional Assay, Cpds/Ref 5182 (ERRγ): 0.98

OCCC/C(=C(\c1ccc(Br)cc1)c1ccc(C2CNC2)cc1)c1ccccc1 [Compound 20f]
Permeability Pampa (in vitro; 5 hours): 0.14 10^−6 cm/s | MS(Microsomal Stability) (%) human [1]: 83.9% | MS(Microsomal Stability) (%) rat [2]: 99.5%

OCCC/C(=C(\c1ccc(O)cc1)c1ccc(OCCN2CCOCC2)cc1)c1ccccc1 [Compound 6c]
Functional Assay at 10 μM (% of control), Cpds (ERRγ): 4.64 % of control | Functional Assay, Cpds/Ref 5182 (ERRγ): 1.51 | MS(Microsomal Stability) (%) human [1]: 128.0% | MS(Microsomal Stability) (%) rat [2]: 45.2%

OCCC/C(=C(\c1ccc(O)cc1)c1ccc(C2CNC2)cc1)c1ccccc1 [Compound 20e]
AUCINF (in vivo): 0.34 μMh | AUCall (in vivo): 0.28 μMh | Vss (in vivo): 52.8 L/kg | t1/2 (in vivo): 4.4 h | MS(Microsomal Stability) (%) human [1]: 78.1% | MS(Microsomal Stability) (%) rat [2]: 82.1%

OCCC/C(=C(\c1ccc(O)cc1)c1ccc(N2CCOCC2)cc1)c1ccccc1 [Compound 18o]
Functional Assay at 10 μM (% of control), Cpds (ERRγ): 23.2 % of control | Functional Assay, Cpds/Ref 5182 (ERRγ): 2.33

CN1CCN(CCOc2ccc(/C(=C(/CCCO)c3ccccc3)c3ccc(O)cc3)cc2)CC1 [Compound 6b]
Functional Assay at 10 μM (% of control), Cpds (ERRγ): 7.97 % of control | Functional Assay, Cpds/Ref 5182 (ERRγ): 2.59

CN1CCN(Cc2ccc(/C(=C(/CCCO)c3ccccc3)c3ccc(O)cc3)cc2)CC1 [Compound 30a, (E)-4-(5-hydroxy-1-(4-((4-methylpiperazin-1-yl)methyl)phenyl)-2-phenylpent-1-en-1-yl)phenol]
Functional Assay at 10 μM (% of control), Cpds (ERRγ): 2.94 % of control | Functional Assay, Cpds/Ref 5182 (ERRγ): 3.09

CN(C)CCn1cc(-c2ccc(/C(=C(/CCCO)c3ccccc3)c3ccc(O)cc3)cc2)nn1 [Compound 18u]
Functional Assay at 10 μM (% of control), Cpds (ERRγ): 5.33 % of control | Functional Assay, Cpds/Ref 5182 (ERRγ): 5.61

OCCC/C(=C(\c1ccc(O)cc1)c1ccc(OCCN2C[C@H]3CNC[C@H]3C2)cc1)c1ccccc1 [Compound 40, 4-((Z)-1-(4-(2-((3 aR,6aS)-hexahydropyrrolo[3,4-c]pyrrol-2(1H)-yl)ethoxy)phenyl)-5-hydroxy-2-phenylpent-1-en-1-yl)phenol]
Functional Assay at 10 μM (% of control), Cpds (ERRγ): 2.8 % of control | Functional Assay, Cpds/Ref 5182 (ERRγ): 0.96 | MS(Microsomal Stability) (%) human [1]: 64.7% | MS(Microsomal Stability) (%) rat [2]: 72.0%

CC(C)N1CCN(c2ccc(/C(=C(/CCCO)c3ccccc3)c3ccc(OS(C)(=O)=O)cc3)cc2)CC1 [Compound 28a, (E)-4-(5-hydroxy-1-(4-(4-isopropylpiperazin-1-yl)phenyl)-2-phenylpent-1-en-1-yl)phenyl methanesulfonate]
Functional Assay at 10 μM (% of control), Cpds (ERRγ): 1.14 % of control | Functional Assay, Cpds/Ref 5182 (ERRγ): 1.20

C[Si](C)(CN1C[C@H]2CNC[C@H]2C1)c1ccc(/C(=C(/CCCO)c2ccccc2)c2ccc(O)cc2)cc1 [Compound 42e]
Functional Assay at 10 μM (% of control), Cpds (ERRγ): 26.04 % of control | Functional Assay, Cpds/Ref 5182 (ERRγ): 6.37

C[Si](C)(CN1CCCCC1)c1ccc(/C(=C(/CCCO)c2ccccc2)c2ccc(O)cc2)cc1 [Compound 42b]
Functional Assay at 10 μM (% of control), Cpds (ERRγ): 11.6 % of control | Functional Assay, Cpds/Ref 5182 (ERRγ): 1.16 | Papp at 5 h (in vitro): 0.1 ×10⁻⁶ cm/s

C[Si](C)(CN1CCCC1)c1ccc(/C(=C(/CCCO)c2ccccc2)c2ccc(O)cc2)cc1 [Compound 42c]
Functional Assay at 10 μM (% of control), Cpds (ERRγ): 2.6 % of control | Functional Assay, Cpds/Ref 5182 (ERRγ): 0.89

CN1CCN(c2ccc(/C(=C(/CCCOC(=O)C(C)(C)C)c3ccccc3)c3ccc(OC(=O)C(C)(C)C)cc3)cc2)CC1 [Compound 28g]
Functional Assay at 10 μM (% of control), Cpds (ERRγ): 5.1 % of control | Functional Assay, Cpds/Ref 5182 (ERRγ): 1.25

O=C(CN1CCCCC1)Nc1ccc(/C(=C(/CCCO)c2ccccc2)c2ccc(O)cc2)cc1 [Compound 44, (E)-N-(4-(5-hydroxy-1-(4-hydroxyphenyl)-2-phenylpent-1-en-1-yl)phenyl)-2-(piperidin-1-yl)acetamide]
Functional Assay at 10 μM (% of control), Cpds (ERRγ): 12.94 % of control | Functional Assay, Cpds/Ref 5182 (ERRγ): 3.16

CN1CCCC1CCOc1ccc(/C(=C(/CCCO)c2ccccc2)c2ccc(Br)cc2)cc1 (stereo not shown) [Compound 13d]
CYP inhibition (% of control) 1A2 (CYP1A2): >100 % of control | CYP inhibition (% of control) 2C9 (CYP2C9): 97 % of control | CYP inhibition (% of control) 2D6 (CYP2D6): >100 % of control | Papp at 5 h (in vitro): 0.14 ×10⁻⁶ cm/s | MS(Microsomal Stability) (%) human [1]: 67.3% | MS(Microsomal Stability) (%) rat [2]: 59.9%

CN1CCN(c2ccc(/C(=C(/CCCO)c3ccccc3)c3ccc(OC(=O)C(C)(C)C)cc3)cc2)CC1 [Compound 28e]
Functional Assay at 10 μM (% of control), Cpds (ERRγ): 4.76 % of control | Functional Assay, Cpds/Ref 5182 (ERRγ): 1.16 | MS(Microsomal Stability) (%) human [1]: 56.4% | MS(Microsomal Stability) (%) rat [2]: 59.6%

CC(C)(C)OC(=O)N1CCN(c2ccc(/C(=C(/CCCO)c3ccccc3)c3ccc(O)cc3)cc2)CC1 [Compound 18m]
Functional Assay at 10 μM (% of control), Cpds (ERRγ): 2.97 % of control | Functional Assay, Cpds/Ref 5182 (ERRγ): 1.01

CN1C[C@@H]1CCCOc1ccc(/C(=C(/CCCO)c2ccccc2)c2ccc(Br)cc2)cc1 (stereo partly shown) [Compound 13c]
Functional Assay at 10 μM (% of control), Cpds (ERRγ): 10.58 % of control | Functional Assay, Cpds/Ref 5182 (ERRγ): 3.36

OCCC/C(=C(\c1ccc(O)cc1)c1ccc(NCCN2CCCCC2)cc1)c1ccccc1 [Compound 45, (E)-4-(5-hydroxy-2-phenyl-1-(4-((2-(piperidin-1-yl)ethyl)amino)phenyl)pent-1-en-1-yl)phenol]
Functional Assay at 10 μM (% of control), Cpds (ERRγ): 1.58 % of control | Functional Assay, Cpds/Ref 5182 (ERRγ): 1.55

OCCC/C(=C(\c1ccc(O)cc1)c1ccc(N2CCNCC2)cc1)c1ccccc1 [Compound 20c]
Functional Assay at 10 μM (% of control), Cpds (ERRγ): 2.72 % of control | Functional Assay, Cpds/Ref 5182 (ERRγ): 0.93 | MS(Microsomal Stability) (%) human [1]: 55.8% | MS(Microsomal Stability) (%) rat [2]: 53.7%
